Measurements: patent US20200283384A1, “ANTIBACTERIAL COMPOUNDS AND METHODS OF USE THEREOF” (Wayne State University, priority 2016, published 2020)
Read-outs that look alike come from different tables or passages of the source.

Key:
[1] = system: 24 strains of S. aureus (SA1-SA24); assay: Broth micro-dilution MIC against 24 strains of S. aureus; assay type: cell-based; conditions: for MIC: Staphylococcus aureus, read-out: Compound MIC
Experimental: Compounds were tested for their anti-bacterial activity against 56 clinical isolates including 24 clinical isolates of methicillin resistant S. aureus (MRSA) and methicillin-susceptible S. aureus (MSSA), 8 strains of Enterococcus, 8 strains of Acinetobacter baumannii, 8 strains of Klebsiella pneumoniae, and 8 strains of Pseudomonas aeruginosa using a standard broth micro-dilution method as recommended by the Clinical and Laboratory Standard Institute (CLSI, M100, s23).
HN18 HN19, and HN34 were tested by a broth micro-dilution method to determine their minimal inhibitory concentration (MIC) against 24 strains of S. aureus (SA1-SA24) (Table 2). […]. Furthermore, the results for HN18 and HN34 were consistent across four repeated experiments. […]

S. aureus isolates = conditions: for MIC: Staphylococcus aureus
[2] = system: S. aureus clinical isolates; assay: Synergistic effect with oxacillin (oxacillin MIC alone and in presence of SIC); assay type: cell-based, Staphylococcus aureus; conditions: Staphylococcus aureus
Experimental: The synergistic effect (interaction) of HN18 and HN34 with different antibiotics against S. aureus clinical isolates was studied. The oxacillin MIC values of 8 clinical isolates of Staphylococcus aureus were determined. The oxacillin MIC of the same isolates were also determined after they were exposed to SIC of HN18, HN34 (Table 5). […] Column 2 and 3 show the oxacillin MIC value of the same isolates in presence of SIC of HN18 and HN34 respectively.

COc1cc(/C=C/C(=O)C(=Cc2ccc(F)c(F)c2)C(=O)/C=C/c2ccc(O)c(OC)c2)ccc1O [HN19, (1E,6E)-1,7-bis(4-hydroxy-3-methoxyphenyl)hepta-1,6-diene{4(3,4 difluorobenzylidene)}-3,5-dione]
effective: Effect against the panel of S. aureus strains ([1]; 24 strains SA1-SA24, broth micro-dilution)
0.25 µg/mL: MIC ([1]; isolate SA16, experiment I)
1 µg/mL: MIC ([1]; isolate SA1, experiment I) | MIC ([1]; isolate SA2, experiment I) | MIC ([1]; isolate SA3, experiment I) | MIC ([1]; isolate SA4, experiment IV) | MIC ([1]; isolate SA11, experiment I) | MIC ([1]; isolate SA13, experiment I) | MIC ([1]; isolate SA15, experiment I) | MIC ([1]; isolate SA15, experiment II) | MIC ([1]; isolate SA18, experiment I) | MIC ([1]; isolate SA19, experiment I) | MIC ([1]; isolate SA20, experiment I) | MIC ([1]; isolate SA24, experiment I)
0.5 µg/mL: MIC ([1]; isolate SA5, experiment I) | MIC ([1]; isolate SA6, experiment I) | MIC ([1]; isolate SA7, experiment I) | MIC ([1]; isolate SA8, experiment I) | MIC ([1]; isolate SA9, experiment I) | MIC ([1]; isolate SA9, experiment II) | MIC ([1]; isolate SA16, experiment II)
2 µg/mL: MIC ([1]; isolate SA4, experiment I) | MIC ([1]; isolate SA5, experiment II) | MIC ([1]; isolate SA10, experiment I) | MIC ([1]; isolate SA11, experiment II) | MIC ([1]; isolate SA12, experiment I) | MIC ([1]; isolate SA14, experiment I) | MIC ([1]; isolate SA14, experiment II) | MIC ([1]; isolate SA17, experiment I) | MIC ([1]; isolate SA21, experiment I) | MIC ([1]; isolate SA22, experiment I) | MIC ([1]; isolate SA23, experiment I)
16 µg/mL: MIC ([1]; isolate SA1, experiment IV)
4 µg/mL: MIC ([1]; isolate SA2, experiment II) | MIC ([1]; isolate SA2, experiment III) | MIC ([1]; isolate SA3, experiment II) | MIC ([1]; isolate SA4, experiment II) | MIC ([1]; isolate SA5, experiment III) | MIC ([1]; isolate SA6, experiment II) | MIC ([1]; isolate SA6, experiment III) | MIC ([1]; isolate SA7, experiment II) | MIC ([1]; isolate SA7, experiment III) | MIC ([1]; isolate SA8, experiment II) | MIC ([1]; isolate SA10, experiment II) | MIC ([1]; isolate SA12, experiment II) | MIC ([1]; isolate SA13, experiment II) | MIC ([1]; isolate SA17, experiment II) | MIC ([1]; isolate SA18, experiment II) | MIC ([1]; isolate SA19, experiment II) | MIC ([1]; isolate SA20, experiment II) | MIC ([1]; isolate SA22, experiment II) | MIC ([1]; isolate SA23, experiment II) | MIC ([1]; isolate SA24, experiment II)
8 µg/mL: MIC ([1]; isolate SA1, experiment II) | MIC ([1]; isolate SA1, experiment III) | MIC ([1]; isolate SA2, experiment IV) | MIC ([1]; isolate SA3, experiment III) | MIC ([1]; isolate SA3, experiment IV) | MIC ([1]; isolate SA4, experiment III) | MIC ([1]; isolate SA5, experiment IV) | MIC ([1]; isolate SA6, experiment IV) | MIC ([1]; isolate SA7, experiment IV) | MIC ([1]; isolate SA8, experiment III) | MIC ([1]; isolate SA8, experiment IV) | MIC ([1]; isolate SA21, experiment II)

Cc1onc(-c2ccccc2)c1C(=O)N[C@@H]1C(=O)N2[C@@H]1SC(C)(C)[C@@H]2C(=O)O [Oxacillin, reference compound]
> 16 µg/mL: MIC (S. aureus isolates; read-out: Oxacillin MIC) | Oxacillin MIC (S. aureus isolates; isolates SA1, SA2, prior to exposure to sub-inhibitory concentration of HN18 and HN34) | MIC ([2]; isolate SA3, oxacillin tested alone) | MIC ([2]; isolate SA4, oxacillin tested alone) | MIC ([2]; isolate SA5, oxacillin tested alone) | MIC ([2]; isolate SA9, oxacillin tested alone) | MIC ([2]; isolate SA15, oxacillin tested alone) | MIC ([2]; isolate SA18, oxacillin tested alone)
16 µg/mL: MIC ([2]; isolate SA10, oxacillin tested alone)
8 µg/mL: MIC ([2]; isolate SA11, oxacillin tested alone)

O=C(N[C@H](CO)[C@H](O)c1ccc([N+](=O)[O-])cc1)C(Cl)Cl [chloramphenicol]
> 40 µg/mL: MIC (S. aureus isolates; read-out: Chloramphenicol MIC)
